In US6479460B1, “Synthetic peptides and pseudopeptides having osteogenic activity and pharmaceutical compositions containing the same” (Yissum Research Development Company of the Hebrew …, priority 1996, dated 2002):
Primed or numbered codes have the meaning given here. Where no end group is shown, it is not given here. [ ]: non-standard residue; d: D form. The star is where a group is joined. Biotin = O=C1N[C@H]2[C@H](CS[C@H]2CCCCC(=O)*)N1; Bpa = N[C@@H](Cc1ccc(C(=O)c2ccccc2)cc1)C(=O)O; Desaminotyrosyl = O=C(CCc1ccc(O)cc1)*; NMeF = CN[C@@H](Cc1ccccc1)C(=O)O; ol″ = C-terminal alcohol; Hexanoyl = CCCCCC(=O)*; NHCH2CH2OMe = COCCN*; βAla = NCCC(=O)O; Sar = CNCC(=O)O

How the values were obtained:
Assay type in all cases: cell-based
[1] = tested on: fibroblastic NIH 3T3 cells; assay: Proliferation assay, fibroblastic NIH 3T3 cells; details: for Relative in vitro potency (95% confidence limit) NIH 3T3 cells: analog concentration 10^−11M, mean cell number relative to positive control OGP(1-14) = 1.00
Text: (§1) Some of the analogs were subjected to a dose response analysis.

[2] = tested on: osteoblastic MC3T3 E1 cells; assay: Proliferation assay, osteoblastic MC3T3 E1 cells; details: for Relative in vitro potency (95% confidence limit) MC3T3 E1 cells: analog concentration 10^−13M, mean cell number relative to positive control OGP(1-14) = 1.00
Text: as §1

[3] = tested on: osteoblastic MC3T3 E1 and fibroblastic NIH 3T3 cells; assay: Proliferation assay, text statements not split by cell line; details: in vitro, compared to OGP(1-14) or parent analog
Procedure: The effect of OGP analogs on osteoblastic MC3T3 E1 and fibroblastic NIH 3T3 cell proliferation was measured as before [Bab, I., et al (1992) EMBO J. 11:1867]. Some of the analogs were subjected to a dose response analysis. Otherwise the analog concentration was 10^−13M and 10^−11M in the MC3T3 E1 and NIH3T3 cell cultures, respectively. The mean cell number in triplicate culture wells was expressed as percent of a positive control triplicate dosed with OGP(1-14) (SEQ ID NO: 1). Experiments testing one dose per cell line were repeated at least four times and the activity of individual analogs expressed as the mean of results and 95% confidence limit obtained in these repetitive experiments.

Row | Substance | Relative in vitro potency (95% confidence limit) NIH 3T3 cells [1] | Relative in vitro potency (95% confidence limit) MC3T3 E1 cells [2] | OGP-like proliferative activity (in words) [3] | activity compared to OGP(1-14) ([1]; NIH3T3 cells) | activity compared to OGP(1-14) ([2]; MC3T3 E1 cells)
1 | c(β-Ala-Tyr-Gly-Phe-Gly-Asp)-OH ([βAla]YGFGD-OH; lactam (positions not given here); also: cyclic, closure site not given here) [c(β-Ma-Tyr-Gly-Phe-Gly-Asp)-OH] | -0.19 | −0.08 | essentially nil | – | –
2 | cyclo(GG[dF]G[dY]) | 1.16 | 1.03 | preserved or slightly improved its in vitro activity | – | –
3 | [Gly^13ψ(CH2)2Gly^14]OGP(11-14) (GFGG; also: reduced ethylene bond ψ(CH2)2 between Gly13 and Gly14) | 0.08 | 0.15 | essentially nil | – | –
4 | Nα-biotinylcaproyl[Bpa^12]OGP(10-14) ({Biotin-Hexanoyl}-YG[Bpa]GG) [Nα-biotinylcaproyl-[BPA^12]OGP(10-14)] | – | – | remained unaltered | – | –
5 | desamino[Tyr^10]OGP(10-13)—NH(CH2)2OMe ([Desaminotyrosyl]GFG-NHCH2CH2OMe; SMILES COCCNC(=O)CNC(=O)[C@H](Cc1ccccc1)NC(=O)CNC(=O)CCc1ccc(O)cc1) | 0.06 | 0.03 | essentially nil | – | –
6 | desamino Tyr-NH-CH2-CH2-Phe-Gly-Gly ([Desaminotyrosyl]GFGG; also: Gly2-Phe3 bond reduced, ψ(CH2NH)) | 0.67 | 0.61 | – | – | –
7 | desamino[Tyr^10,Ala^13]OGP(10-14) ([Desaminotyrosyl]GFAG) | 0.15 | 0.27 | – | – | –
8 | c(Gly-Tyr-Gly-Phe-Gly-Gly) (GYGFGG; cyclic) | 0.20 | 0.26 | – | – | –
9 | [Ala^14]OGP(11-14) (GFGA) | 0.10 | 0.17 | – | – | –
10 | desamino[Tyr^10]OGP(10-14)—NH2 ([Desaminotyrosyl]GFGG-NH2; SMILES NC(=O)CNC(=O)CNC(=O)[C@H](Cc1ccccc1)NC(=O)CNC(=O)CCc1ccc(O)cc1) | 0.16 | 0.20 | – | – | –
11 | OGP(11-14)-ol (GFGG-{ol″}) | 0.38 | 0.24 | – | – | –
12 | c(δ-Ala-Tyr-Gly-Phe-Gly-Gly) | 0.18 | 0.14 | – | – | –
13 | desamino[Tyr^10,Sar^11]OGP(10-14) [desamino[Tyr^10,Sar^11]OGP(10-14) (SEQ ID NO: 31)] ([Desaminotyrosyl][Sar]FGG) | 0.39 | 0.31 | – | – | –
14 | c(Tyr-Gly-Phe-Gly-Asp)-OH (YGFGD-OH; lactam (positions not given here); also: cyclic, closure site not given here) | 0.11 | 0.14 | – | – | –
15 | c(β-Ala-Tyr-Gly-Phe-Gly-Gly) (cyclo([βAla]YGFGG); SMILES O=C1CNC(=O)CNC(=O)[C@H](Cc2ccccc2)NC(=O)CNC(=O)[C@H](Cc2ccc(O)cc2)NC(=O)CCN1) | 0.37 | 0.36 | – | – | –
16 | desamino[Tyr^10,Sar^13]OGP(10-14) ([Desaminotyrosyl]GF[Sar]G) | 0.11 | 0.15 | – | – | –

Row | Substance | Relative in vitro potency (95% confidence limit) NIH 3T3 cells [1] | Relative in vitro potency (95% confidence limit) MC3T3 E1 cells [2] | OGP-like proliferative activity (in words) [3] | activity compared to OGP(1-14) ([1]; NIH3T3 cells) | activity compared to OGP(1-14) ([2]; MC3T3 E1 cells)
17 | c(Gly-Tyr-Gly-Phe-Gly-Asp)-OH (GYGFGD-OH; lactam (positions not given here); also: cyclic, closure site not given here) | 0.16 | 0.15 | – | – | –
18 | c(Tyr-Cly-Phe-Gly) (YGFG; cyclic) | 0.43 | 0.35 | – | – | –
19 | desamino[Tyr^10]OGP(10-13)—NH(CH2)2NH2 ([Desaminotyrosyl]GFG-{NH(CH2)2NH2}) | 0.17 | 0.18 | – | – | –
20 | desamino Tyr-Gly-N(CH3)-CH(CH2C6H5)-C(O)-Gly-Gly ([Desaminotyrosyl]G[NMeF]GG) [desamino[Tyr^10,N(Me)-Phe^12]OGP(10-14)] | 0.67 | 0.52 | – | – | –
21 | desamino[Tyr^10]OGP(10-14)—N(Me)2 ([Desaminotyrosyl]GFGG-{N(Me)2}) | 0.16 | 0.12 | – | – | –
22 | desamino[Tyr^10,D-Ala^12]OGP(10-14) | 0.02 | 0.30 | – | – | –
23 | desamino Tyr-Gly-NH-CH(CH2C6H5)-CH2-Gly-Gly ([Desaminotyrosyl]GFGG; also: reduced amide bond Phe-Gly (NH-CH(CH2C6H5)-CH2-NH)) | 0.88 | 0.70 | – | – | –
24 | [D-Ala^13]OGP(10-14) | 0.26 | 0.14 | – | – | –
25 | [Phe^10]OGP(10-14) (FGFGG) | 0.32 | 0.41 | – | – | –
26 | desamino[Tyr^10]OGP(10-14)—OMe ([Desaminotyrosyl]GFGG-OMe; SMILES COC(=O)CNC(=O)CNC(=O)[C@H](Cc1ccccc1)NC(=O)CNC(=O)CCc1ccc(O)cc1) | 0.36 | 0.51 | – | less than 50% | higher than 50%
27 | [β-Ala^11]OGP(10-14) (Y[βAla]FGG) | 0.17 | 0.29 | – | – | –
28 | des[Gly^11]OGP(10-14) | 0.17 | 0.21 | – | – | –
29 | desamino[Tyr^10,D-Ala^14]OGP(10-14) | 0.32 | 0.41 | – | – | –
30 | desamino[Tyr^10,D-Ala^11]OGP(10-14) | 0.19 | 0.21 | – | – | –
31 | desamino[Tyr^10]OGP(10-13)—NHEt ([Desaminotyrosyl]GFG-NHEt; SMILES CCNC(=O)CNC(=O)[C@H](Cc1ccccc1)NC(=O)CNC(=O)CCc1ccc(O)cc1) | 0.20 | 0.19 | – | – | –
